# Reference: patent US7691844B2, “Nonpeptide substituted spirobenzoazepines as vasopressin antagonists” (Ortho-McNeil Pharmaceutical, Inc., priority 2000, dated 2010)
# Assays:
# V1a [1] = target: T1, V1a (Homo sapiens, UniProt P37288); experiment: In-vitro receptor binding assay (3H-arginine-8-vasopressin), V1a
# How it was run: (§1)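 Radioligand is 3H-arginine-8-vasopressin, incubated with receptor for one hour at room temperature, then filtered on GF/C plates and counted by scintillation. Non-specific binding was defined with 1.25 μM vasopressin, and results are given as % inhibition.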
# V1a [2] = target: T1, V1a; experiment: V1a vasopressin receptor functional activity (inhibition of vasopressin-induced intracellular calcium, FLIPR, V1a-HEK cells); format: cell-based; design: expressed in transfected cells; settings: HEK-293 cells transfected with human V1a receptor; vasopressin challenge
# Description: [formula] (B) V1a Vasopressin Receptor Functional Activity
# The V1a receptor is a G-protein coupled receptor, which upon activation triggers an increase in intracellular calcium mobilization. To evaluate compounds for their functional V1a receptor activity, HEK-293 cells were transfected with the human V1a receptor (V1a-HEK cells). HEK-293 cells were grown in DMEM (Dulbecco's modified Eagle Media) supplemented with 10% FBS and glutamine. HEK-cells were passed biweekly by trypsinization and seeded into 96 well plates at 33,000 cells per well. HEK-293 cells were transfected with human V1a receptor DNA using DMRIE-C reagent from Life Technologies. Stable lines were generated by selecting cells grown in culture media containing geneticin. After growing in Packard Clear-View black 96 well plates for 4-6 days, V1a-HEK cells were loaded with the calcium-sensitive fluorescence dye, FLUO-3 AM. Changes in cell fluorescence were quantitated using FLIPR (Fluorometric Imaging Plate Reader; Molecular Devices, Sunnyvale, Calif.). Test compounds were first added to the cells and the resulting changes in fluorescence measured to detect receptor agonistic activity. Five minutes later the cells were challenged with vasopressin to test compounds for their antagonistic activity. Receptor antagonists inhibit the ability of vasopressin to stimulate increases in intracellular fluorescence. IC50's were calculated.
# human V2 receptor = human V2 receptor (Homo sapiens, UniProt P30518); experiment: In-vitro receptor binding assay (3H-arginine-8-vasopressin), V2
# Sequence of human V2 receptor (P30518 whole entry): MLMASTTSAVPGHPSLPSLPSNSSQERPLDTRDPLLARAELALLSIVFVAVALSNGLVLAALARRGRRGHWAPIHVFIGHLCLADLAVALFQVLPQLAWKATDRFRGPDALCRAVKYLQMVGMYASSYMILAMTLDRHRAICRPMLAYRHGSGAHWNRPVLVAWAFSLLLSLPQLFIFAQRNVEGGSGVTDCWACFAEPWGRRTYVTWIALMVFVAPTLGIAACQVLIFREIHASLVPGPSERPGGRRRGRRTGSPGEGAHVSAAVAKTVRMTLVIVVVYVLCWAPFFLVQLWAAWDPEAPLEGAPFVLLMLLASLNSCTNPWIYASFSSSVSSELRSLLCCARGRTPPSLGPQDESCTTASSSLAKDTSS
# How it was run: as §1
# [3] = read-out: Receptor Binding V2 (% Inh. @ concentration in μM)
# [4] = @ 1 μM, read-out: Receptor Binding V2 (% Inh. @ concentration in μM)
# [5] = read-out: Receptor Binding V1a (% Inh. @ concentration in μM)
# T1 sequence (P37288 whole entry): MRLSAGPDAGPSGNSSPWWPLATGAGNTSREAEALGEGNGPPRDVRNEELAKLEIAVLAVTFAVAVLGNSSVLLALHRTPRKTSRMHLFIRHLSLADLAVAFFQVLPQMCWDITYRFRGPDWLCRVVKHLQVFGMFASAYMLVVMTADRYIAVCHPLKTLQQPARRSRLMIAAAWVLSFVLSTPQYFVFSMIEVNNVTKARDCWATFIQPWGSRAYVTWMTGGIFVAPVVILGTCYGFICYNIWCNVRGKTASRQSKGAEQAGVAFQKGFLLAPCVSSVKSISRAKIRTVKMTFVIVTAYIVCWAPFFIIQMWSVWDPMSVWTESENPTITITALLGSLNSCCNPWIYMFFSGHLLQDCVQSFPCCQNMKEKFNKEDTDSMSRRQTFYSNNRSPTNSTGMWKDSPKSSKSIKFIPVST
SMILES,IC50 (V1a [1]) [µM],IC50 (V1a [2]) [µM],IC50 (human V2 receptor) [µM],also measured
"O=C(Nc1ccc(C(=O)N2CCC3(C=C(CO)CC3)Cc3ccccc32)cc1)c1ccccc1-c1ccccc1 (centres unmarked) [Compound 1, 4-(2-Phenylbenzoyl-4-aminobenzoyl)-3′-(hydroxymethyl)-4-aza-[6,4]-spiro-[5,6]-benzoundec-2′-ene]",0.009,< 0.01,0.018,–
"CNCC1=CC2(CC1)CCN(C(=O)c1ccc(NC(=O)c3ccccc3-c3ccccc3)cc1)c1ccccc1C2 (centres unmarked) [Compound 3, 4-(2-Phenylbenzoyl-4-aminobenzoyl)-3′-(methylaminomethyl)-4-aza-[6,4]-spiro-[5,6]-benzoundec-2′-ene]",0.009,< 0.01,0.018,–
"O=C(O)C1=CC2(CC1)CCN(C(=O)c1ccc(NC(=O)c3ccccc3-c3ccccc3)cc1)c1ccccc1C2 (centres unmarked) [Compound 4, 4-(2-Phenylbenzoyl-4-aminobenzoyl)-3′ (carboxyl)-4-aza-[6,4]-spiro-[5,6]-benzoundec-2′-ene]",0.037,0.02,0.014,–
"CC(=O)N(C)CC1=CC2(CC1)CCN(C(=O)c1ccc(NC(=O)c3ccccc3-c3ccccc3)cc1)c1ccccc1C2 (centres unmarked) [Compound 5, 4-(2-Phenylbenzoyl-4-aminobenzoyl)-3′-(N-methyl-N-acetylaminomethyl)-4-aza-[6,4]-spiro-[5,6]-benzoundec-2′-ene]",0.02,< 0.01,0.022,–
O=C(NCCO)C1=CC2(CC1)CCN(C(=O)c1ccc(NC(=O)c3ccccc3-c3ccccc3)cc1)c1ccccc1C2 (centres unmarked) [Compound 6],0.006,0.005,0.011,–
Cc1ccc(F)cc1C(=O)Nc1ccc(C(=O)N2CCC3(C=C(C(=O)NCCN(C)C)CC3)Cc3ccccc32)cc1 (centres unmarked) [Compound 13],0.005,0.07,0.018,–
Cc1ccc(F)cc1C(=O)Nc1ccc(C(=O)N2CCC3(C=C(C(=O)NCCCN(C)C)CC3)Cc3ccccc32)cc1 (centres unmarked) [Compound 14],0.005,0.059,0.023,–
COC(=O)CNCC1=CC2(CC1)CCN(C(=O)c1ccc(NC(=O)c3cc(F)ccc3C)cc1)c1ccccc1C2 (centres unmarked) [Compound 15],0.007,0.135,0.1,–
O=C(NCCN1CCOCC1)C1=CC2(CC1)CCN(C(=O)c1ccc(NC(=O)c3ccccc3F)cc1)c1ccccc1C2 (centres unmarked) [Compound 17],0.014,0.227,–,inhibition at 0.1 µM (human V2 receptor; [3]): 18%
O=C(NCCN1CCCCC1)C1=CC2(CC1)CCN(C(=O)c1ccc(NC(=O)c3ccccc3F)cc1)c1ccccc1C2 (centres unmarked) [Compound 18],0.007,0.95,–,inhibition at 0.1 µM (human V2 receptor; [3]): 23%
CCNc1ccc(C(=O)N2CCC3(CCCCC3)Cc3ccccc32)cc1 [Compound 26],0.16,0.105,10,–
O=C(Nc1ccccc1)c1ccc(C(=O)N2CCCC3(C=CCCC3)c3ccccc32)cc1 (centres unmarked) [Compound 27],0.1,0.008,0.27,–
N#Cc1ccc(C(=O)N2CCC3(C=CCCC3)Cc3ccccc32)cc1 (centres unmarked) [Compound 33],0.13,> 1,–,–
COc1ccc(C(=O)N2CCC3(C=CCCC3)Cc3ccccc32)cc1 (centres unmarked) [Compound 37],0.11,0.096,–,Receptor Binding V2 (% Inh. @ concentration in μM) (human V2 receptor; @ 10 μM): 37% @ 10
COc1cc(N)ccc1C(=O)N1CCC2(C=C(C(=O)NCCN(C)C)CC2)Cc2ccccc21 (centres unmarked) [Compound 194],–,–,–,"inhibition at 1 µM (V1a [1]; @ 1 μM, read-out: Receptor Binding V1a (% Inh. @ concentration in μM)): 7%; inhibition at 1 µM (human V2 receptor; [4]): 6%"
O=C(O)c1ccn(-c2ccc(C(=O)N3CCC4(C=CCCC4)Cc4ccccc43)cc2)c1 (centres unmarked) [Compound 199],–,–,–,inhibition at 0.1 µM (V1a [1]; [5]): 0%; inhibition at 0.1 µM (human V2 receptor; [3]): 2%
CN(C)CCNC(=O)C1=CC2(CC1)CCN(C(=O)c1ccc(-n3ccc(C=O)c3)cc1)c1ccccc1C2 (centres unmarked) [Compound 201],–,–,–,inhibition at 0.1 µM (V1a [1]; [5]): 44%; inhibition at 0.1 µM (human V2 receptor; [3]): 0%
CON(C)Cc1ccn(-c2ccc(C(=O)N3CCC4(C=C(C(=O)NCCN(C)C)CC4)Cc4ccccc43)cc2)c1 (centres unmarked) [Compound 210],–,–,–,inhibition at 0.125 µM (V1a [1]; [5]): 6%; inhibition at 1 µM (human V2 receptor; [4]): 22%
COC(=O)C1=CC2(CC1)CCN(C(=O)c1ccc(-n3ccc(C)n3)c(N)c1)c1ccccc1C2 (centres unmarked) [Compound 211],–,–,–,inhibition at 0.125 µM (V1a [1]; [5]): 55%; inhibition at 1 µM (human V2 receptor; [4]): 45%
COC(=O)C1=CC2(CC1)CCN(C(=O)c1ccc(-n3nccc3C)c(N)c1)c1ccccc1C2 (centres unmarked) [Compound 212],–,–,–,inhibition at 0.125 µM (V1a [1]; [5]): 29%; inhibition at 1 µM (human V2 receptor; [4]): 16%
COC(=O)C1=CC2(CC1)CCN(C(=O)c1ccc(-n3ccc(C)n3)c(N(C)C)c1)c1ccccc1C2 (centres unmarked) [Compound 213],–,–,–,inhibition at 0.125 µM (V1a [1]; [5]): 63%; inhibition at 1 µM (human V2 receptor; [4]): 55%
"CC(=O)N1CCC(Oc2ccc(C(=O)N3CCC4(C=CCCC4)Cc4ccccc43)cc2)CC1 (centres unmarked) [Compound 224, 4-(4-(N-acetylpiperidin-4-yloxy)benzoyl)-4-aza-[6,5]-spiro-[5,6]-benzododec-2′-ene]",–,–,–,inhibition at 0.1 µM (V1a [1]; [5]): 41%; Receptor Binding V2 (% Inh.) (human V2 receptor; concentration not given): 0%

# The next lines start with results.
IC50 (V1a [1]) [µM],IC50 (V1a [2]) [µM],IC50 (human V2 receptor) [µM],SMILES,also measured
–,> 1,–,O=C(c1ccc(Cl)c(Cl)c1)N1CCC2(C=CCCC2)Cc2ccccc21 (centres unmarked) [Compound 48],"inhibition at 10 µM (V1a [1]; @ 10 μM, read-out: Receptor Binding V1a (% Inh. @ concentration in μM)): 33%; inhibition at 10 µM (human V2 receptor; @ 10 μM, read-out: Receptor Binding V2 (% Inh. @ concentration in μM)): 16%"
0.06,0.104,8,CCCCOc1ccc(C(=O)N2CCC3(C=CCCC3)Cc3ccccc32)cc1 (centres unmarked) [Compound 53],–
0.008,–,–,"COc1cc(C(=O)N2CCC3(C=C(C(=O)NCCN(C)C)CC3)Cc3ccccc32)ccc1-n1ccc(CO)c1 (centres unmarked) [Compound 190, 4-[3-Methoxy-4-(3-hydroxymethylpyrrol-1-yl)benzoyl]-3′-[2-(N,N-dimethylamino)ethylcarboxamido]-4-aza-[6,4]-spiro-[5,6]-benzoundec-2′-ene]",inhibition at 1 µM (human V2 receptor; [4]): 28%
1.2,–,–,CN(C)CCNC(=O)C1=CC2(CC1)CCN(C(=O)c1ccc(N)cc1)c1ccccc1C2 (centres unmarked) [Compound 191],Receptor Binding V2 (% Inh. @ concentration in μM) (human V2 receptor; @ 1 μM): 15% @ 1
5.4,–,–,CN(C)CCNC(=O)C1=C[C@@]2(CC1)CCN(C(=O)c1ccc(N)cc1)c1ccccc1C2 [Compound 192],inhibition at 1 µM (human V2 receptor; [4]): 0%
1.1,–,–,CN(C)CCNC(=O)C1=CC2(CC1)CCN(C(=O)c1ccc(N)cc1)c1ccccc1C2 (centres unmarked) [Compound 193],Receptor Binding V2 (% Inh. @ concentration in μM) (human V2 receptor; @ 1 μM): 0% @ 1
0.3,–,–,COc1cc(-n2ccc(C=O)c2)ccc1C(=O)N1CCC2(C=C(C(=O)NCCN(C)C)CC2)Cc2ccccc21 (centres unmarked) [Compound 195],inhibition at 1 µM (human V2 receptor; [4]): 18%
0.034,–,–,COc1cc(-n2ccc(CO)c2)ccc1C(=O)N1CCC2(C=C(C(=O)NCCN(C)C)CC2)Cc2ccccc21 (centres unmarked) [Compound 196],inhibition at 1 µM (human V2 receptor; [4]): 34%
0.006,–,–,COc1cc(C(=O)N2CC[C@]3(C=C(C(=O)NCCN(C)C)CC3)Cc3ccccc32)ccc1-n1ccc(CO)c1 [Compound 197],inhibition at 0.1 µM (human V2 receptor; [3]): 0%
0.016,–,–,COc1cc(C(=O)N2CC[C@@]3(C=C(C(=O)NCCN(C)C)CC3)Cc3ccccc32)ccc1-n1ccc(CO)c1 [Compound 198],inhibition at 0.1 µM (human V2 receptor; [3]): 0%
0.055,–,–,Cc1ccn(-c2ccc(C(=O)N3CCC4(C=C(C(=O)NCCN(C)C)CC4)Cc4ccccc43)cc2)n1 (centres unmarked) [Compound 209],inhibition at 1 µM (human V2 receptor; [4]): 43%
0.046,–,–,COC(=O)C1=CC2(CC1)CCN(C(=O)c1ccc(NC(=O)c3cc(F)ccc3F)cc1)c1ccccc1C2 (centres unmarked) [Compound 218],"inhibition at 0.2 µM (human V2 receptor; @ 0.2 μM, read-out: Receptor Binding V2 (% Inh. @ concentration in μM)): 23%"
